What all share (assay type): cell-based
One test addresses T1, M2 muscarinic receptor (Homo sapiens, UniProt P08172).
T1 construct: expressed in transfected cells; host or cells: CHO (M2-CHO)
T1 sequence (P08172 1-466): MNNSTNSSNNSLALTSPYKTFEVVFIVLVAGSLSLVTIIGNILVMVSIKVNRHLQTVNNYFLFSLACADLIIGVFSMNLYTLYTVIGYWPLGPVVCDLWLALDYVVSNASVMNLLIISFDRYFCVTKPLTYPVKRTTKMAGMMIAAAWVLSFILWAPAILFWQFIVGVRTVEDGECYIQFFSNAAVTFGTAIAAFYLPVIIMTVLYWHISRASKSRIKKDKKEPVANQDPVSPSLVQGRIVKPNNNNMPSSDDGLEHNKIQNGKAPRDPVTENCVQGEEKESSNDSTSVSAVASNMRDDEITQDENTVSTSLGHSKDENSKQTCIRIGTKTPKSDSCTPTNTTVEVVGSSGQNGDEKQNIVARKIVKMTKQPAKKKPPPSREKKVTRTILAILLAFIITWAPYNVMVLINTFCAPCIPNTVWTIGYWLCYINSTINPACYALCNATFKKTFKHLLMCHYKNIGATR
As to the kind of experiment: Functional mobilization of intracellular calcium (FLIPR), M2-CHO cells. As to conditions: for M2 Activity: M2-CHO cells, calcium mobilization (FLIPR). Put shortly: (§1)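 Calcium mobilisation read by FLIPR over 60 s (ex 488/em 540 nm) in recombinant muscarinic CHO lines loaded with calcium dye plus 1 mM probenecid. Compounds tested as agonists alone, or as inhibitors against EC80 carbachol after 15 min pre-incubation or co-addition; 0.5% DMSO; efficacy scaled to carbachol maximal response.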
For orientation: A change in cytosolic calcium serves as a functional read-out for many receptors and channels.

The next test concerns the target T2, M1 muscarinic receptor (Homo sapiens, UniProt P11229).
T2 construct: expressed in transfected cells; host or cells: CHO (M1-CHO)
T2 sequence (P11229 1-460): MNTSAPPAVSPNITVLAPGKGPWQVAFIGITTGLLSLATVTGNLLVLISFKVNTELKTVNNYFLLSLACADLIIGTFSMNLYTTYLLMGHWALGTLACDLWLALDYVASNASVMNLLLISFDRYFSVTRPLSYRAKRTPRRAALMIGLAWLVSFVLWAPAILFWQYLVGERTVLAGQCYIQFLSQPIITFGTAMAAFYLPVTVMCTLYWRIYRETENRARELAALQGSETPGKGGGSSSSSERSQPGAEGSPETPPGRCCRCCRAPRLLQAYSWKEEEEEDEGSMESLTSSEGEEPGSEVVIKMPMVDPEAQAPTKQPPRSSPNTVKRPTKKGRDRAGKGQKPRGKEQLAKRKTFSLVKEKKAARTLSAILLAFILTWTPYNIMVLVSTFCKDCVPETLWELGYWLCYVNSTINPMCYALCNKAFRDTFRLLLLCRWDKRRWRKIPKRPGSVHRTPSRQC
As to the kind of experiment: Functional mobilization of intracellular calcium (FLIPR), M1-CHO cells. Particulars: for M1 Activity: M1-CHO cells, calcium mobilization (FLIPR). Put shortly: as §1

A further test addresses T3, M3 muscarinic receptor (Homo sapiens, UniProt P20309).
T3 construct: expressed in transfected cells; host or cells: CHO (M3-CHO)
In words: Functional mobilization of intracellular calcium (FLIPR), M3-CHO cells. As to conditions: for M3 Activity: M3-CHO cells, calcium mobilization (FLIPR). The protocol:
Functional Mobilization of Intracellular Calcium to Determine Muscarinic Receptor Activity:
CHO cells expressing muscarinic receptors (M1 to M5) are grown as monolayers in tissue culture flasks at 37° C. in a humidified atmosphere containing 5% CO2 and passaged every 3-5 days. The growth media is Dulbecco's modified eagles medium (DMEM, Gibco Cat #12430-054), containing 25 mM Hepes and supplemented with Fetal Bovine Serum (Hyclone, cat #SH30071.03), 0.1 mM of MEM non-essential amino acids (GIBCO, Cat #11140-050), 1 mM MEM Sodium Pyruvate (GIBCO Cat #11360-070) and 100 units/ml of Penicillin G and 100 μg/ml of Streptomycin (GIBCO Cat #15140-122). The recombinant muscarinic receptor cell lines are grown under antibiotic pressure with media containing 25 μg/ml zeocin and 500 μg/ml G418 (M1-CHO), 4 μg/ml puromycin, 50 μg/ml zeocin and 2.5 μg/ml blasticidin (M2 and M4-CHO) or 50 μg/ml zeocin and 4 μg/ml puromycin (M3 and M5-CHO).
Cells are harvested at 80-90% confluence using Versene (GIBCO Cat #15040-066), collected by centrifugation and seeded 18-24 hrs prior to running the calcium assay at a density of 5,000-10,000 cells/well in […], clear-bottomed 384-well plates (BD Biocoat, poly-D-lysine, Cat #356663). The day of the experiment, the cells are washed with a plate washer (Bioteck Instruments, ELX 405) using bath 1 buffer (140-mM NaCl, 4.5-mM KCl, 2-mM CaCl2, 1-mM MgCl2, 10-mM Hepes-Na, 10-mM Glucose, pH 7.4, with NaOH) containing 1 mM Probenecid. Next, the calcium dye Fluo-3 (25 μl/well of Fluo-3 AM at 4 μM, Molecular Probes F-1241, in Bath 1 buffer containing 1 mM Probenecid) is added to the 25 μl of Bath 1 remaining in each well after the plate wash and the dye is loaded at 37° C. in the tissue culture incubator for 60-90 min. The fluorescent dye is removed using the plate washer with Bath 1 containing 1 mM Probenecid, leaving 25 μl/well of this solution after the wash. Alternatively, cells can be loaded with the calcium indicator from Molecular Devices (Calcium 3 Assay Reagents, Cat #R7181) adding 5 μl of a 5× solution dye in Bath 1 containing 1 mM Probenecid (10 ml per dye flask cat #R7182 to generate a solution 20×) to 20 μl of the same buffer. After loading for 60 min, the experiment can be run without having to remove the dye.
Compounds are prepared at a 2× fold concentration in a 96-well plate (round bottom, Costar Corning cat #3656), by reconstituting the pre-spotted compounds in bath 1 containing 1 mM probenecid. The final concentration DMSO is 0.5%, and the amount of DMSO is normalized across the assay plate. To determine an agonist action of the compounds on muscarinic receptors, the reconstituted compounds are added (25 μl compound/well) to the cell assay plate (containing 25 μl/well) using the multi-channel robotic system of the FLIPR 3 Instrument (Molecular Devices, Sunnyvale, Calif.). To determine a functional inhibitory action of the compounds on muscarinic receptors, the reconstituted compounds are added (25 μl compound/well) to the assay plate and pre-incubated for 15 min prior to adding 25 μl of Carbachol at 3× the EC80 for each muscarinic subtype. Alternatively, the compounds can be co-applied simultaneously with the agonist. In both assay modes, the fluorescence is recorded for 60 sec (excitation wavelength is […] and emission wavelength 540 nm) using the FLIPR 3 instrument.
The potency, efficacy and selectivity of the muscarinic compounds were evaluated by screening the compound activity across the whole family (M1 to M5 cells). Compounds were also screened for activity on other proteins such as other GPCRs and ion channels to determine selectivity on M4 receptors.
Examples of activities and efficacies of the muscarinic compounds of formulae (I, Ia, Ib, and II) on modulating M1, M2, M3 and M4 receptors are shown below in Table 3. […]

A further test addresses T4, M4 muscarinic receptor (Homo sapiens, UniProt P08173).
T4 construct: expressed in transfected cells; host or cells: CHO (M4-CHO)
T4 sequence (P08173 1-479): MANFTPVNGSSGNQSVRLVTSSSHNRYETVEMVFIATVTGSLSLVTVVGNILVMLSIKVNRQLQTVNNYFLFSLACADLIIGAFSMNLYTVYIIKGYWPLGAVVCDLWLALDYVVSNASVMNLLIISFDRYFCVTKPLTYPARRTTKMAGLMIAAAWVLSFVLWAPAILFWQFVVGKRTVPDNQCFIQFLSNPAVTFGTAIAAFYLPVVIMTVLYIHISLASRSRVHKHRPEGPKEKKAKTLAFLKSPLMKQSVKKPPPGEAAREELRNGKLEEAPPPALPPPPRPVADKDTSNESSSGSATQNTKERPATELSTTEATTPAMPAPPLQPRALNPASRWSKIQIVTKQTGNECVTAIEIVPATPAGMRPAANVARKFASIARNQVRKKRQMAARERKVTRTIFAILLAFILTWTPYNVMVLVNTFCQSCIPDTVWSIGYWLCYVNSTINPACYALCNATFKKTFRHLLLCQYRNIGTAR
In words: Functional mobilization of intracellular calcium (FLIPR), M4-CHO cells. Particulars: for M4 Activity: M4-CHO cells, calcium mobilization (FLIPR). Put shortly:
as §1

Where [1] appears, read: 100% efficacy = maximum response obtained with the Carbachol control.
[2] abbreviates: 100% efficacy is the maximum response obtained with the Carbachol control.

T3 sequence (P20309 whole entry): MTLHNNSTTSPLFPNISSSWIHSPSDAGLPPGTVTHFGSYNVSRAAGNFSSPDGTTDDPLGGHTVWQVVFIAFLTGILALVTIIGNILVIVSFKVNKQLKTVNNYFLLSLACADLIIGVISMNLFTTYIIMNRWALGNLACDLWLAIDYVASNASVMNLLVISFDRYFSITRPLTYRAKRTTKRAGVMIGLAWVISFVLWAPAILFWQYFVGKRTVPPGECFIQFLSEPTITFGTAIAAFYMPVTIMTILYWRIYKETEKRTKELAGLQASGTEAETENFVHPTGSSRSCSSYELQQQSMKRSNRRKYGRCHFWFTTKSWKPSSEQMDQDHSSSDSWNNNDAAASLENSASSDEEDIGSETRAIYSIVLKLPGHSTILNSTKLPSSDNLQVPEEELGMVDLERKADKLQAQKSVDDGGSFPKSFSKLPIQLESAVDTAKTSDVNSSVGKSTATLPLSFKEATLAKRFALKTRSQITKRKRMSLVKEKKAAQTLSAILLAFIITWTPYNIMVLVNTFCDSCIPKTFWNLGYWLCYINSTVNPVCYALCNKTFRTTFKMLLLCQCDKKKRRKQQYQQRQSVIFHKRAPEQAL

As usually defined, the Emax is the maximal effect, on the per cent scale that the assay sets. Take `Cc1ccc(F)cc1C1CCN(C2C[C@H]3CC[C@H]2C3)CC1` (stereo partly drawn) [Compound 73]: the Emax is 25 to 100% at M2 muscarinic receptor (setting [1]), 25 to 100% at M1 muscarinic receptor (setting [1]), less than 25% on M3 muscarinic receptor (setting [1]) and 25 to 100% at M4 muscarinic receptor (setting [1]). Further, the “M2 Activity” value at M2 muscarinic receptor was “++ (activity was measured to be from 1.0 μM to 5.0 μM)”. Besides, the “M1 Activity” value on M1 muscarinic receptor is on record as “++ (activity was measured to be from 1.0 μM to 5.0 μM)”. In addition, on M3 muscarinic receptor, the “M3 Activity” value is “+ (activity was measured to be greater than 5.0 μM)”. For the same compound, the “M4 Activity” value at M4 muscarinic receptor is listed as “+++ (activity was measured to be less than 1.0 μM)”.
As to `COc1ccc(-c2cccnc2)cc1C1CCN([C@H]2C[C@H]3CC[C@H]2C3)CC1` [Compound 148], the Emax at M2 muscarinic receptor (setting [1]), at M1 muscarinic receptor (setting [1]), at M3 muscarinic receptor (setting [1]) and on M4 muscarinic receptor (setting [1]) was less than 25% each time. Also, at M2 muscarinic receptor, the “M2 Activity” value is on record as “+ (activity was measured to be greater than 5.0 μM)”. In addition, the “M1 Activity” value on M1 muscarinic receptor is listed as “+ (activity was measured to be greater than 5.0 μM)”. For the same compound, at M3 muscarinic receptor, the “M3 Activity” value is “+ (activity was measured to be greater than 5.0 μM)”. In addition, the “M4 Activity” value on M4 muscarinic receptor was “+ (activity was measured to be greater than 5.0 μM)”.
As for `COc1ccc(-c2ccc(C(C)(C)C#N)cc2)cc1C1CCN(C2CC3CCC(C3)C2)CC1` (stereo not drawn) [Compound 361], the Emax was less than 25% on M2 muscarinic receptor (setting [1]), 25 to 100% at M1 muscarinic receptor (setting [1]), less than 25% at M3 muscarinic receptor (setting [1]) and 25 to 100% at M4 muscarinic receptor (setting [1]). Besides, the “M2 Activity” value at M2 muscarinic receptor is “+ (activity was measured to be greater than 5.0 μM)”. Moreover, the “M1 Activity” value on M1 muscarinic receptor is “+ (activity was measured to be greater than 5.0 μM)”. Further, the “M3 Activity” value at M3 muscarinic receptor is on record as “+ (activity was measured to be greater than 5.0 μM)”. In addition, at M4 muscarinic receptor, the “M4 Activity” value is reported as “+ (activity was measured to be greater than 5.0 μM)”.
Take `COc1cc(F)c(F)cc1C1CCN([C@@H]2C[C@H]3CC[C@H]2C3)CC1` [Compound 76]: the Emax on M2 muscarinic receptor (setting [1]) is less than 25%; on M1 muscarinic receptor (setting [1]), less than 25%; at M3 muscarinic receptor (setting [1]), less than 25%; on M4 muscarinic receptor (setting [1]), 25 to 100%. For the same compound, the “M2 Activity” value at M2 muscarinic receptor is given as “+ (activity was measured to be greater than 5.0 μM)”. Also, the “M1 Activity” value on M1 muscarinic receptor is “+ (activity was measured to be greater than 5.0 μM)”. At M3 muscarinic receptor, the “M3 Activity” value is “+ (activity was measured to be greater than 5.0 μM)”. Further, the “M4 Activity” value on M4 muscarinic receptor is “++ (activity was measured to be from 1.0 μM to 5.0 μM)”.
Consider `COc1cccc(C(=O)COc2ccccc2C2CCN([C@H]3C[C@H]4CC[C@H]3C4)CC2)c1` [Compound 119], for which the Emax is 25 to 100% on M2 muscarinic receptor (setting [1]), 25 to 100% at M1 muscarinic receptor (setting [1]), less than 25% at M3 muscarinic receptor (setting [1]) and 25 to 100% on M4 muscarinic receptor (setting [1]). Also, the “M2 Activity” value on M2 muscarinic receptor is “+ (activity was measured to be greater than 5.0 μM)”. In addition, on M1 muscarinic receptor, the “M1 Activity” value was “+ (activity was measured to be greater than 5.0 μM)”. Also, the “M3 Activity” value at M3 muscarinic receptor is listed as “+ (activity was measured to be greater than 5.0 μM)”. Also, the “M4 Activity” value on M4 muscarinic receptor is given as “++ (activity was measured to be from 1.0 μM to 5.0 μM)”.
Consider `COc1ccc(-c2ccc(C(=O)NC3CC3)cc2)cc1C1CCN([C@H]2C[C@H]3CC[C@H]2C3)CC1` [Compound 401], for which the Emax on M2 muscarinic receptor (setting [2]), on M1 muscarinic receptor (setting [2]), at M3 muscarinic receptor (setting [2]) and on M4 muscarinic receptor (setting [2]) was less than 25% each time. Further, the “M2 Activity” value on M2 muscarinic receptor was “+ (activity was measured to be greater than 5.0 μM)”. Also, the “M1 Activity” value on M1 muscarinic receptor is given as “+ (activity was measured to be greater than 5.0 μM)”. Moreover, the “M3 Activity” value at M3 muscarinic receptor is given as “+ (activity was measured to be greater than 5.0 μM)”. In addition, the “M4 Activity” value on M4 muscarinic receptor is “+ (activity was measured to be greater than 5.0 μM)”.

(Values after patent US7880007B2, “Bicyclic substituted phenyl piperidine modulators of muscarinic receptors” (Vertex Pharmaceuticals Incorporated, priority 2004, dated 2011).)
